The values that follow come from ChEMBL document CHEMBL4265888, “Discovery of super soft-drug modulators of sphingosine-1-phosphate receptor 1” (Bioorg Med Chem Lett, 2018).

Molecules are shown by their SMILES. Bounds are passed on as bounds.

One data set concerns Homo sapiens. In words: Antiinflammatory activity in psoriasis patient assessed as incident of 75% reduction in psoriasis area and severity index score at 40 mg, po dosed daily during phase 2 study for 28 weeks. Format: functional. Also on record: scale not given: the % may be the effect or the level left.
A short description of data set [1]: Drug level in human plasma treated with (5-methyl-2-oxo-1,3-dioxol-4-yl)methyl 4-((3-(2-hydroxyphenyl)-4-oxo-2-(propylimino)thiazolidin-5-ylidene)methyl)benzoate at 37 degC. The data set is classed as ADME, cell-free.
Data set [2] concerns the target Sphingosine 1-phosphate receptor 1 (Homo sapiens, UniProt P21453). The data set is described as follows: Inhibition of S1PR1 (unknown origin) expressed in CHOK1 cells after 90 mins by beta-arresting recuitment assay. Format: functional, cell-based.
A short description of data set [3]: Drug metabolism in human plasma assessed as formation of 4-((3(2-hydroxyphenyl)-4-oxo-2-(propylimino)thiazolidin-5-ylidene)methyl)benzoic acid at 37 degC. Format: ADME, cell-free.

Sphingosine 1-phosphate receptor 1, sequence (P21453 whole entry): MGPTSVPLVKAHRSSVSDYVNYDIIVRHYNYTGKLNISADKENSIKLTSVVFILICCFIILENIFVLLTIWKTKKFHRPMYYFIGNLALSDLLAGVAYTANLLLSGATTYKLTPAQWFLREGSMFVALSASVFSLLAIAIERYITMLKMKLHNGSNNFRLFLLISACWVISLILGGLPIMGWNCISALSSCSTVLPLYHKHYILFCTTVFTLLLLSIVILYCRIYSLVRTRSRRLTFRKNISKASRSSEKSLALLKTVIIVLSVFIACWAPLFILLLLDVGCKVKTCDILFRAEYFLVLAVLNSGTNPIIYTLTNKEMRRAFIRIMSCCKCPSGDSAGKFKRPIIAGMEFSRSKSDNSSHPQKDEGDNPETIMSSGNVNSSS

Turning to `CCC/N=C1\S/C(=C\c2ccc(OC[C@H](O)CO)c(Cl)c2)C(=O)N1c1ccccc1C` [PONESIMOD], the Activity in the data set with Homo sapiens turned out to be 77%.

What is called IC50 is the midpoint of a concentration-inhibition curve. Turning to `CCC/N=C1\S/C(=C\c2ccc(C(=O)O)cc2)C(=O)N1c1ccccc1O`, the Drug metabolism result in data set [1] is reported as “Metabolite_Notdetected”. For the same molecule, the IC50 in data set [2] was greater than 1000 nM.

`CCC/N=C1\S/C(=C\c2ccc(C(=O)OCc3oc(=O)oc3C)cc2)C(=O)N1c1ccccc1O` had an IC50 in data set [2] greater than 1000 nM. Moreover, in data set [3], the Drug metabolism result is on record as “Metabolite_Detected”.
